Assay results: ChEMBL document CHEMBL1137659, “Molecular epidemiology of clinical isolates of carbapenem-resistant Acinetobacter spp. from Chinese hospitals” (2007)
In brackets after ≈: the same amount, converted by molar mass.

Experiments:
[1] = system: Acinetobacter phenon 6/ct 13TU (Acinetobacter sp.); experiment: Antimicrobial activity against imipenem and meropenem-resistant Acinetobacter phenon 6/ct 13TU isolate PU86 by CLSI agar dilution method
[2] = system: Acinetobacter genospecies 13TU; experiment: Antimicrobial activity against imipenem and meropenem-resistant Acinetobacter genospecies 13TU isolate CY6 by CLSI agar dilution method
Acinetobacter baumannii [3] = experiment: Antimicrobial activity against imipenem and meropenem-resistant Acinetobacter baumannii isolate PU4A22 by CLSI agar dilution method; format: functional
[4] = system: Acinetobacter genospecies 10/11; experiment: Antimicrobial activity against imipenem and meropenem-resistant Acinetobacter genospecies 10/11 isolate ZS15 by CLSI agar dilution method
Acinetobacter baumannii [5] = experiment: Antimicrobial activity against imipenem and meropenem-resistant Acinetobacter baumannii isolate BJ55 by CLSI agar dilution method; format: functional
Acinetobacter baumannii [6] = experiment: Antimicrobial activity against imipenem and meropenem-resistant Acinetobacter baumannii isolate ZJ49 by CLSI agar dilution method; format: functional
Acinetobacter baumannii [7] = experiment: Antimicrobial activity against imipenem and meropenem-resistant Acinetobacter baumannii isolate NJ59 by CLSI agar dilution method; format: functional
Acinetobacter baumannii [8] = experiment: Antimicrobial activity against imipenem and meropenem-resistant Acinetobacter baumannii isolate BJ3-9 by CLSI agar dilution method; format: functional
Acinetobacter phenon 5 = experiment: Antimicrobial activity against imipenem and meropenem-resistant Acinetobacter phenon 5 isolate PUA6 by CLSI agar dilution method
Acinetobacter baumannii [9] = experiment: Antimicrobial activity against imipenem and meropenem-resistant Acinetobacter baumannii isolate FW-F1 by CLSI agar dilution method; format: functional
Acinetobacter baumannii [10] = experiment: Antimicrobial activity against imipenem and meropenem-resistant Acinetobacter baumannii isolate DL34 by CLSI agar dilution method; format: functional
Acinetobacter baumannii [11] = experiment: Antimicrobial activity against imipenem and meropenem-resistant Acinetobacter baumannii isolate BJ52 by CLSI agar dilution method; format: functional
Acinetobacter baumannii [12] = experiment: Antimicrobial activity against imipenem and meropenem-resistant Acinetobacter baumannii isolate PU4A1 by CLSI agar dilution method; format: functional
[13] = system: Acinetobacter phenon 6/ct 13TU; experiment: Antimicrobial activity against imipenem and meropenem-resistant Acinetobacter phenon 6/ct 13TU isolate FZ4A18 by CLSI agar dilution method
Acinetobacter baumannii [14] = experiment: Antimicrobial activity against imipenem and meropenem-resistant Acinetobacter baumannii isolate ZJ36 by CLSI agar dilution method; format: functional
Acinetobacter baumannii [15] = experiment: Antimicrobial activity against imipenem and meropenem-resistant Acinetobacter baumannii isolate PU73 by CLSI agar dilution method; format: functional
Acinetobacter baumannii [16] = experiment: Antimicrobial activity against imipenem and meropenem-resistant Acinetobacter baumannii isolate BJ3-23 by CLSI agar dilution method; format: functional
Acinetobacter baumannii [17] = experiment: Antimicrobial activity against imipenem and meropenem-resistant Acinetobacter baumannii isolate PUA1 by CLSI agar dilution method; format: functional
Acinetobacter baumannii [18] = experiment: Antimicrobial activity against imipenem and meropenem-resistant Acinetobacter baumannii isolate ZJ32 by CLSI agar dilution method; format: functional
[19] = system: Acinetobacter genospecies 10/11; experiment: Antimicrobial activity against imipenem and meropenem-resistant Acinetobacter genospecies 10/11 isolate ZS5 by CLSI agar dilution method
[20] = system: Acinetobacter genospecies 3; experiment: Antimicrobial activity against imipenem and meropenem-resistant Acinetobacter genospecies 3 isolate PUA7 by CLSI agar dilution method
Acinetobacter baumannii [21] = experiment: Antimicrobial activity against imipenem and meropenem-resistant Acinetobacter baumannii isolate FZ84 by CLSI agar dilution method; format: functional
Acinetobacter baumannii [22] = experiment: Antimicrobial activity against imipenem and meropenem-resistant Acinetobacter baumannii isolate CY7 by CLSI agar dilution method; format: functional
Acinetobacter baumannii [23] = experiment: Antimicrobial activity against imipenem and meropenem-resistant Acinetobacter baumannii isolate JN45 by CLSI agar dilution method; format: functional
[24] = system: Acinetobacter genospecies 3 (Acinetobacter genomosp. 3); experiment: Antimicrobial activity against imipenem and meropenem-resistant Acinetobacter genospecies 3 isolate PU78 by CLSI agar dilution method; settings: Acinetobacter genospecies 3, isolate PU78
Acinetobacter baumannii [25] = experiment: Antimicrobial activity against imipenem and meropenem-resistant Acinetobacter baumannii isolate ZJ58 by CLSI agar dilution method; format: functional
[26] = system: Acinetobacter phenon 6/ct 13TU; experiment: Antimicrobial activity against imipenem and meropenem-resistant Acinetobacter phenon 6/ct 13TU isolate PU86 by CLSI agar dilution method
[27] = system: Acinetobacter genospecies 3; experiment: Antimicrobial activity against imipenem and meropenem-resistant Acinetobacter genospecies 3 isolate PU78 by CLSI agar dilution method

Row | Molecule | MIC [1] | MIC [2] | MIC (Acinetobacter baumannii [3]) | MIC (Acinetobacter baumannii [5]) | MIC (Acinetobacter baumannii [6]) | MIC (Acinetobacter baumannii [8]) | MIC (Acinetobacter phenon 5) | MIC (Acinetobacter baumannii [9]) | MIC (Acinetobacter baumannii [12]) | MIC (Acinetobacter baumannii [14]) | MIC (Acinetobacter baumannii [15]) | MIC (Acinetobacter baumannii [16]) | MIC (Acinetobacter baumannii [17]) | MIC (Acinetobacter baumannii [18]) | MIC [19] | MIC [20] | MIC (Acinetobacter baumannii [21]) | MIC (Acinetobacter baumannii [22]) | MIC (Acinetobacter baumannii [23]) | MIC (Acinetobacter baumannii [25]) | further results
1 | NCC[C@H](O)C(=O)N[C@@H]1C[C@H](N)[C@@H](O[C@H]2O[C@H](CN)[C@@H](O)[C@H](O)[C@H]2O)[C@H](O)[C@H]1O[C@H]1O[C@H](CO)[C@@H](O)[C@H](N)[C@H]1O [AMIKACIN] | 4 µg/mL (≈ 6.83 µM) | 32 µg/mL (≈ 54.6 µM) | 128 µg/mL (≈ 219 µM) | > 256 µg/mL | 256 µg/mL (≈ 437 µM) | > 256 µg/mL | 2 µg/mL (≈ 3.42 µM) | > 256 µg/mL | > 256 µg/mL | 2 µg/mL (≈ 3.42 µM) | > 256 µg/mL | > 256 µg/mL | 8 µg/mL (≈ 13.7 µM) | > 256 µg/mL | > 256 µg/mL | 4 µg/mL (≈ 6.83 µM) | > 256 µg/mL | > 256 µg/mL | 128 µg/mL (≈ 219 µM) | 64 µg/mL (≈ 109 µM) | MIC [4]: 256 µg/mL (≈ 437 µM); MIC (Acinetobacter baumannii [7]): > 256 µg/mL; MIC (Acinetobacter baumannii [10]): > 256 µg/mL; MIC (Acinetobacter baumannii [11]): 2 µg/mL (≈ 3.42 µM); MIC [13]: 32 µg/mL (≈ 54.6 µM); MIC [24]: 1 µg/mL (≈ 1.71 µM)
2 | CC(C)(O/N=C(\C(=O)N[C@@H]1C(=O)N2C(C(=O)[O-])=C(C[n+]3ccccc3)CS[C@H]12)c1csc(N)n1)C(=O)O [CEFTAZIDIME] | > 256 µg/mL | > 256 µg/mL | > 256 µg/mL | > 256 µg/mL | 32 µg/mL (≈ 58.5 µM) | 8 µg/mL (≈ 14.6 µM) | > 256 µg/mL | > 256 µg/mL | > 256 µg/mL | 16 µg/mL (≈ 29.3 µM) | > 256 µg/mL | > 256 µg/mL | > 256 µg/mL | 64 µg/mL (≈ 117 µM) | > 256 µg/mL | > 256 µg/mL | > 256 µg/mL | > 256 µg/mL | > 256 µg/mL | 16 µg/mL (≈ 29.3 µM) | MIC [4]: 16 µg/mL (≈ 29.3 µM); MIC (Acinetobacter baumannii [7]): > 256 µg/mL; MIC (Acinetobacter baumannii [10]): 64 µg/mL (≈ 117 µM); MIC (Acinetobacter baumannii [11]): 16 µg/mL (≈ 29.3 µM); MIC [13]: > 256 µg/mL; MIC [24]: 4 µg/mL (≈ 7.32 µM)
3 | C[C@@H](O)[C@H]1C(=O)N2C(C(=O)O)=C(SCCNC=N)C[C@H]12 [IMIPENEM ANHYDROUS] | 16 µg/mL (≈ 53.4 µM) | 32 µg/mL (≈ 107 µM) | 64 µg/mL (≈ 214 µM) | 32 µg/mL (≈ 107 µM) | 32 µg/mL (≈ 107 µM) | 64 µg/mL (≈ 214 µM) | 64 µg/mL (≈ 214 µM) | 64 µg/mL (≈ 214 µM) | 64 µg/mL (≈ 214 µM) | 16 µg/mL (≈ 53.4 µM) | 64 µg/mL (≈ 214 µM) | 64 µg/mL (≈ 214 µM) | 64 µg/mL (≈ 214 µM) | 64 µg/mL (≈ 214 µM) | 64 µg/mL (≈ 214 µM) | 16 µg/mL (≈ 53.4 µM) | 16 µg/mL (≈ 53.4 µM) | 64 µg/mL (≈ 214 µM) | 32 µg/mL (≈ 107 µM) | 16 µg/mL (≈ 53.4 µM) | MIC [4]: 64 µg/mL (≈ 214 µM); MIC (Acinetobacter baumannii [7]): 16 µg/mL (≈ 53.4 µM); MIC (Acinetobacter baumannii [10]): 32 µg/mL (≈ 107 µM); MIC (Acinetobacter baumannii [11]): 32 µg/mL (≈ 107 µM); MIC [13]: 16 µg/mL (≈ 53.4 µM); MIC [24]: 16 µg/mL (≈ 53.4 µM)
4 | C[C@H]1COc2c(N3CCN(C)CC3)c(F)cc3c(=O)c(C(=O)O)cn1c23.C[C@H]1COc2c(N3CCN(C)CC3)c(F)cc3c(=O)c(C(=O)O)cn1c23.O [LEVOFLOXACIN] | 0.125 µg/mL | 0.12 µg/mL | 4 µg/mL | 16 µg/mL | 4 µg/mL | 4 µg/mL | 0.06 µg/mL | 4 µg/mL | 4 µg/mL | 4 µg/mL | 16 µg/mL | 4 µg/mL | 16 µg/mL | 16 µg/mL | > 32 µg/mL | 0.06 µg/mL | > 32 µg/mL | > 32 µg/mL | 0.5 µg/mL | > 32 µg/mL | MIC [4]: 4 µg/mL; MIC [13]: 0.12 µg/mL; MIC [24]: 0.125 µg/mL
5 | C[C@@H](O)[C@H]1C(=O)N2C(C(=O)O)=C(S[C@@H]3CN[C@H](C(=O)N(C)C)C3)[C@H](C)[C@H]12 [MEROPENEM] | 32 µg/mL (≈ 83.4 µM) | 32 µg/mL (≈ 83.4 µM) | 128 µg/mL (≈ 334 µM) | 32 µg/mL (≈ 83.4 µM) | 32 µg/mL (≈ 83.4 µM) | 32 µg/mL (≈ 83.4 µM) | 64 µg/mL (≈ 167 µM) | 64 µg/mL (≈ 167 µM) | 64 µg/mL (≈ 167 µM) | 16 µg/mL (≈ 41.7 µM) | 64 µg/mL (≈ 167 µM) | 64 µg/mL (≈ 167 µM) | 64 µg/mL (≈ 167 µM) | 32 µg/mL (≈ 83.4 µM) | 128 µg/mL (≈ 334 µM) | 32 µg/mL (≈ 83.4 µM) | 16 µg/mL (≈ 41.7 µM) | 64 µg/mL (≈ 167 µM) | 16 µg/mL (≈ 41.7 µM) | 32 µg/mL (≈ 83.4 µM) | MIC [4]: 64 µg/mL (≈ 167 µM); MIC (Acinetobacter baumannii [7]): 16 µg/mL (≈ 41.7 µM); MIC (Acinetobacter baumannii [10]): 32 µg/mL (≈ 83.4 µM); MIC (Acinetobacter baumannii [11]): 32 µg/mL (≈ 83.4 µM); MIC [13]: 16 µg/mL (≈ 41.7 µM); MIC [24]: 32 µg/mL (≈ 83.4 µM)
6 | CO[C@H]1/C=C/O[C@@]2(C)Oc3c(C)c(O)c4c(O)c(c(/C=N/N5CCN(C)CC5)c(O)c4c3C2=O)NC(=O)/C(C)=C\C=C\[C@H](C)[C@H](O)[C@@H](C)[C@@H](O)[C@@H](C)[C@H](OC(C)=O)[C@@H]1C [RIFAMPIN] | 256 µg/mL (≈ 311 µM) | > 256 µg/mL | 4 µg/mL (≈ 4.86 µM) | 8 µg/mL (≈ 9.72 µM) | 8 µg/mL (≈ 9.72 µM) | 8 µg/mL (≈ 9.72 µM) | > 256 µg/mL | 8 µg/mL (≈ 9.72 µM) | 4 µg/mL (≈ 4.86 µM) | 8 µg/mL (≈ 9.72 µM) | 4 µg/mL (≈ 4.86 µM) | 8 µg/mL (≈ 9.72 µM) | 32 µg/mL (≈ 38.9 µM) | 16 µg/mL (≈ 19.4 µM) | 256 µg/mL (≈ 311 µM) | 128 µg/mL (≈ 156 µM) | 128 µg/mL (≈ 156 µM) | 4 µg/mL (≈ 4.86 µM) | > 256 µg/mL | 8 µg/mL (≈ 9.72 µM) | MIC [4]: > 256 µg/mL; MIC (Acinetobacter baumannii [7]): 8 µg/mL (≈ 9.72 µM); MIC (Acinetobacter baumannii [10]): 4 µg/mL (≈ 4.86 µM); MIC (Acinetobacter baumannii [11]): 8 µg/mL (≈ 9.72 µM); MIC [13]: 4 µg/mL (≈ 4.86 µM); MIC [24]: 4 µg/mL (≈ 4.86 µM)
7 | GENTAMICIN |  | > 256 µg/mL | > 256 µg/mL | > 256 µg/mL | > 256 µg/mL | > 256 µg/mL | > 256 µg/mL | > 256 µg/mL | > 256 µg/mL | 1 µg/mL | > 256 µg/mL | > 256 µg/mL | > 256 µg/mL | > 256 µg/mL | > 256 µg/mL | > 256 µg/mL | > 256 µg/mL | > 256 µg/mL | > 256 µg/mL | > 256 µg/mL | MIC [26]: > 256 µg/mL; MIC (Acinetobacter baumannii [7]): > 256 µg/mL; MIC (Acinetobacter baumannii [10]): > 256 µg/mL; MIC (Acinetobacter baumannii [11]): 4 µg/mL; MIC [27]: 1 µg/mL
